Measured values: paper PMC10104807, “Modulation of tau tubulin kinases (TTBK1 and TTBK2) impacts ciliogenesis” (Scientific Reports, 2023)
“And” between values parts separate entries of the source, which are not always exact repeats. Equal entries are not always repeated. Where two headings read alike, the source gives them in different places.

Assays:
NLuc-TTBK2 = molecular target: T1, NLuc-TTBK2 (Homo sapiens, UniProt Q6IQ55); experiment: TTBK2 NanoBRET cellular target engagement assay in HEK293 cells; assay type: cell-based
T1 construct: host or cells: HEK293
T1 sequence (Q6IQ55 whole entry): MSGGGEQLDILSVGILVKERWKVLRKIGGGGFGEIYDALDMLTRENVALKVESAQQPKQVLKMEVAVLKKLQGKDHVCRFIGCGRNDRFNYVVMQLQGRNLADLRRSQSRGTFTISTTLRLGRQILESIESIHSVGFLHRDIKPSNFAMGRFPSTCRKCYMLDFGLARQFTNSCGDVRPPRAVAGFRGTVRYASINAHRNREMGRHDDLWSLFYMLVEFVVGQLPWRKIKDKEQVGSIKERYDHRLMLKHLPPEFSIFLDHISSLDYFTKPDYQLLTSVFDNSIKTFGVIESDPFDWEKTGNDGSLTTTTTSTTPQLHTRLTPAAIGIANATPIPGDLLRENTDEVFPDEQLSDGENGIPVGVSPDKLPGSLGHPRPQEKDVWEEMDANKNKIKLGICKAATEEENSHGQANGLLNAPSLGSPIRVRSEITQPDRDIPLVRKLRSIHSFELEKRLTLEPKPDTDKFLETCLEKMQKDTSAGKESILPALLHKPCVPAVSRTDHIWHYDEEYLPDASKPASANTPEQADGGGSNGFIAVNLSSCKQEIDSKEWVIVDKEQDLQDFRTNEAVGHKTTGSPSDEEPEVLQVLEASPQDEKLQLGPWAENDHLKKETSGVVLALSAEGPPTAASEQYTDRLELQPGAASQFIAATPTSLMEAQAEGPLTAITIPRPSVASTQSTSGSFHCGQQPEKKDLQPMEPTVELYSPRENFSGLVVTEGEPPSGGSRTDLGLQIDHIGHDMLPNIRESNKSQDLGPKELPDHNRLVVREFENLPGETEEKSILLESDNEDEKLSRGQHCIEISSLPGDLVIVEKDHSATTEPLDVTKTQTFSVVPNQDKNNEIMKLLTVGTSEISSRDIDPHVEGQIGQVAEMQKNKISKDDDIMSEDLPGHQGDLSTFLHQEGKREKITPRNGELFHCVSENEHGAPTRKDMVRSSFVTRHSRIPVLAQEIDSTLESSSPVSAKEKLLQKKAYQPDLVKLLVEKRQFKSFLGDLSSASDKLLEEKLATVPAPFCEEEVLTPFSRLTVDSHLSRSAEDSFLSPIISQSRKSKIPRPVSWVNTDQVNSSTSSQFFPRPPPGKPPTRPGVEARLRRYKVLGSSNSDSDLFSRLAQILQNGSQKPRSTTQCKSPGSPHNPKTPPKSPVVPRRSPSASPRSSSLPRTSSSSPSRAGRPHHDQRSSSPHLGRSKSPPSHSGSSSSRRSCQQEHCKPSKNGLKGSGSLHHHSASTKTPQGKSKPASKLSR
Description: HEK293 cells were transfected with constructs of TTBK1 or TTBK2 tagged with NLuc on the N- or C-terminus as previously described[43] Constructs for NanoBRET measurements of TTBK1 (NLuc-TTBK1 and TTBK1-NLuc) and TTBK2 (NLuc-TTBK2 and TTBK2-NLuc) were kindly provided by Promega. NLuc orientations used in the respective assays are indicated. Cells were plated in 96-well tissue culture treated plates (Corning 3917) at a cell density of 2 × 10^5 cells/mL, with a total volume of 100 μL per well in DMEM. […] NanoBRET plates were read after addition of 50 μL of a stock solution (3X) containing NanoBRET NanoGlo substrate (Promega N2161), extracellular NanoLuc inhibitor (Promega N2161) and Opti-MEM. For a 96-well plate the 3X stock solution was prepared with 30 μL of NanoBRET NanoGlo substrate, 10 μL of extracellular NanoLuc inhibitor, and 4960 μL of Opti-MEM without phenol red. […] HEK293 cells were transfected with NLuc-TTBK1 or NLuc-TTBK2. […] One biological replicate was plotted in GraphPad Prism with log[inhibitor] vs. response (three parameters) and included in Fig. 3C. NanoBRET assays were carried out in dose-response format as described previously. NLuc orientations used in the respective assays are as follows: NLuc-TTBK1, NLuc-TTBK2, and PIP4K2C-NLuc (for PI5[…]γ). […] Data are reported as IC50 ± standard error mean (SEM). For PI5[…]γ, 9 was tested in 12-point dose-response format with a top concentration of 10 μM (data in Table S2). One biological replicate was plotted in GraphPad Prism with log[inhibitor] vs. response (three parameters).

TTBK2 = molecular target: T2, TTBK2 (Homo sapiens, UniProt Q6IQ55); experiment: Eurofins enzymatic radiometric kinase assay; assay type: biochemical; conditions: for TTBK2 PoC: 1 μM, duplicate, lower = greater inhibition
T2 construct: purchased Eurofins
T2 sequence (Q6IQ55 whole entry): as above

PAK5 = molecular target: T3, PAK5 (Homo sapiens, UniProt Q9P286); experiment: Eurofins enzymatic radiometric kinase assay; assay type: biochemical; conditions: ATP at Km, duplicate
T3 construct: purchased Eurofins (radiometric) / Eurofins DiscoverX scanMAX / Reaction Biology / SignalChem
T3 sequence (Q9P286 whole entry): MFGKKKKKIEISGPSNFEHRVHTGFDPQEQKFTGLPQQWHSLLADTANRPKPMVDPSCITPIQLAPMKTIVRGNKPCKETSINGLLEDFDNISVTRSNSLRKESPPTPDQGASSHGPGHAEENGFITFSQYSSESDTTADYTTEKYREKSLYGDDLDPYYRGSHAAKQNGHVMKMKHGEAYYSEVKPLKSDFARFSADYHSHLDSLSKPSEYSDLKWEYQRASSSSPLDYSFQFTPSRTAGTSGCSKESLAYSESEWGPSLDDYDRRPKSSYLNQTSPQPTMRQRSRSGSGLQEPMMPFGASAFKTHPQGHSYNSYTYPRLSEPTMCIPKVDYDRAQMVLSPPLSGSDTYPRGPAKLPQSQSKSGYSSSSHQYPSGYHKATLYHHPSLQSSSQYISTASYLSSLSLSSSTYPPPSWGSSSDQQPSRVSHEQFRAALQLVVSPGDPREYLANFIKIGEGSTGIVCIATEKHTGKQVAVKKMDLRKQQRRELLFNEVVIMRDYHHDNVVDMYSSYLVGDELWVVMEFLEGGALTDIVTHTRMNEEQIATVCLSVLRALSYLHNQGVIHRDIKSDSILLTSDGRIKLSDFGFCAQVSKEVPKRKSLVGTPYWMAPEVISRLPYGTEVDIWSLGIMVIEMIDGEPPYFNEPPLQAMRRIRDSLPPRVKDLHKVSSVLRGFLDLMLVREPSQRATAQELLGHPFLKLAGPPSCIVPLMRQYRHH
Description: (§1) The column labeled “# < 10 PoC in enzyme panel” in Table 1 reports the number of kinases in this 17-member panel inhibited > 90% by each analog.
(§2) Details about the substrate used, protein constructs, controls, and assay protocol for these kinase assays are available at the Eurofins website: https://www.eurofinsdiscoveryservices.com. Reaction Biology Corp. (RBC) radiometric HotSpot kinase assays were carried out at the Km value for ATP in dose–response (10-pt curve) format for MYLK4, RIPK5, and YSK4 in Table S2. Details about the substrate used, protein constructs, controls, and assay protocol for these kinase assays are available at the RBC website: https://www.reactionbiology.com/list-kinase-targets-us-facility. SignalChem developed an ADP-Glo assay to test for enzymatic inhibition of PIKfyve in dose–response (10-pt curve) format in duplicate.

MAP4K5 = molecular target: T4, MAP4K5 (Homo sapiens, UniProt Q9Y4K4); experiment: Eurofins enzymatic radiometric kinase assay; assay type: biochemical; conditions: ATP at Km, duplicate
T4 construct: purchased Eurofins
T4 sequence (Q9Y4K4 whole entry): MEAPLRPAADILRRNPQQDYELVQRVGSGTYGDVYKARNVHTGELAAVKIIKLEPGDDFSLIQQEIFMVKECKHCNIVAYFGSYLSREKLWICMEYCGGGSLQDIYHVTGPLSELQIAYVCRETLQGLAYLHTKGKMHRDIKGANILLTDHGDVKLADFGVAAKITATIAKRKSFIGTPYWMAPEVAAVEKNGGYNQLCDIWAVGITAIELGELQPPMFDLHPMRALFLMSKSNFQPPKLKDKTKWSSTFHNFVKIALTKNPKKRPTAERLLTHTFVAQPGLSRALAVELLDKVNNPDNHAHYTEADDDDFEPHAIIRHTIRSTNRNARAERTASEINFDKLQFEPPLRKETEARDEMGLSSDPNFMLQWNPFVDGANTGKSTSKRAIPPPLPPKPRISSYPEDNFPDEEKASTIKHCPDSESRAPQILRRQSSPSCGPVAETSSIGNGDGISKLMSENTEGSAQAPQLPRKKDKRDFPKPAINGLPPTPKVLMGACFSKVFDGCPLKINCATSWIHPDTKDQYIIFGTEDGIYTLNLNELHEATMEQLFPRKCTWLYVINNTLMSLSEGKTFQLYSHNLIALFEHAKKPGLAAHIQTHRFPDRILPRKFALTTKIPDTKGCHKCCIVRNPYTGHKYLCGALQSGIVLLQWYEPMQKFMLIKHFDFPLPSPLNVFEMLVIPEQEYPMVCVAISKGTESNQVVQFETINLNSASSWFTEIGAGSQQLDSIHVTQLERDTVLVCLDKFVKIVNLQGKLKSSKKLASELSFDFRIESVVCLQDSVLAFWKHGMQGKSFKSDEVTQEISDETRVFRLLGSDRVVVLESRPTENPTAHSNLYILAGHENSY
Description: as §1, §2

MARK3 = molecular target: T5, MARK3 (Homo sapiens, UniProt P27448); experiment: Eurofins enzymatic radiometric kinase assay; assay type: biochemical; conditions: ATP at Km, duplicate
T5 construct: purchased Eurofins (radiometric) / Eurofins DiscoverX scanMAX / Reaction Biology / SignalChem
T5 sequence (P27448 whole entry): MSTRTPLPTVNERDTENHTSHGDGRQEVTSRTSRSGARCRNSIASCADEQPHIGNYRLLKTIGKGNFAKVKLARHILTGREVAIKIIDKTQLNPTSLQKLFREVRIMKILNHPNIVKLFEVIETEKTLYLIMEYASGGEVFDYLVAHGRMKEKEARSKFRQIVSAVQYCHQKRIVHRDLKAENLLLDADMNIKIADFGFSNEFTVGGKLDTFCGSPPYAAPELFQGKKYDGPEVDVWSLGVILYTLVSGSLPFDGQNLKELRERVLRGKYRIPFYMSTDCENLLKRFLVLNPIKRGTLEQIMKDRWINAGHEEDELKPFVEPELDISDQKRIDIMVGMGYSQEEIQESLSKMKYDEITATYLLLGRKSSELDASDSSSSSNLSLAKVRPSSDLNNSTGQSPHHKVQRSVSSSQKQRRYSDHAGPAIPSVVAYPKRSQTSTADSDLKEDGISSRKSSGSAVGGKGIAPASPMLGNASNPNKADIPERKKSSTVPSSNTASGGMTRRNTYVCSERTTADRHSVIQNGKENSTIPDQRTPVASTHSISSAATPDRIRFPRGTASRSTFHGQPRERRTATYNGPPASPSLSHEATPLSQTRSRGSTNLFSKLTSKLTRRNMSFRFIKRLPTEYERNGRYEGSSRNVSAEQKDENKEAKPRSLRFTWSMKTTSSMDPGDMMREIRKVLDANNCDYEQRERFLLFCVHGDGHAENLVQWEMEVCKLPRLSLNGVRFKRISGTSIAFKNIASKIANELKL
Description: as §1, §2

TAOK1 = molecular target: T6, TAOK1 (Homo sapiens, UniProt Q7L7X3); experiment: Eurofins enzymatic radiometric kinase assay; assay type: biochemical; conditions: ATP at Km, duplicate
T6 construct: purchased Eurofins
T6 sequence (Q7L7X3 1-1001): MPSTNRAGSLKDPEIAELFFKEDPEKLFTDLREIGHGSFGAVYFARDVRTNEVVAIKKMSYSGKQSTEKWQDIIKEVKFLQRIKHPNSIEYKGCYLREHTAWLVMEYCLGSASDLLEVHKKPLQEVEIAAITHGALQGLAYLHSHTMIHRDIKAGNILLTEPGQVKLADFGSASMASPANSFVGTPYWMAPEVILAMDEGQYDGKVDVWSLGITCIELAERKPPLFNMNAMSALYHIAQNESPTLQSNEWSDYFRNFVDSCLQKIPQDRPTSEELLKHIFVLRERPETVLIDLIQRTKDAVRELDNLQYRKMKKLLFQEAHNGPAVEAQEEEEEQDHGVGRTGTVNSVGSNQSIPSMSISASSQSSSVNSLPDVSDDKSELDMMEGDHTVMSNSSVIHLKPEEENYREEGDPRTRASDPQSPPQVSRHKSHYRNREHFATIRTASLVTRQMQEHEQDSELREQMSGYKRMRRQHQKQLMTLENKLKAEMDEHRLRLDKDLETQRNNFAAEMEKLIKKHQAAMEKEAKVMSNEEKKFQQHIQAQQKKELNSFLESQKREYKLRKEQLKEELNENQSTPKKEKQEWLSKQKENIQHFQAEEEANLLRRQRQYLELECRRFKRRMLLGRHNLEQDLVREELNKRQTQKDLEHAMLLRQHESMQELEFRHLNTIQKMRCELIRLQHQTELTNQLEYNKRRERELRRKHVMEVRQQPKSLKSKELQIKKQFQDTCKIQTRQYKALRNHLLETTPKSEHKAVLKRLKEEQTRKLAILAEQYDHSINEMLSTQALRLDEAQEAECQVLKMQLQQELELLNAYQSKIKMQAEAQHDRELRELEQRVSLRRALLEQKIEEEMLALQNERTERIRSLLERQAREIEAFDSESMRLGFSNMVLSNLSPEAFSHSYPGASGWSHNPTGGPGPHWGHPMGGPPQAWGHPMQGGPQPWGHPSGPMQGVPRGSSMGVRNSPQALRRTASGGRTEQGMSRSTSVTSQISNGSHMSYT
Description: as §1, §2

PAK6 = molecular target: T7, PAK6 (Homo sapiens, UniProt Q9NQU5); experiment: Eurofins enzymatic radiometric kinase assay; assay type: biochemical; conditions: ATP at Km, duplicate
T7 construct: purchased Eurofins (radiometric) / Eurofins DiscoverX scanMAX / Reaction Biology / SignalChem
T7 sequence (Q9NQU5 whole entry): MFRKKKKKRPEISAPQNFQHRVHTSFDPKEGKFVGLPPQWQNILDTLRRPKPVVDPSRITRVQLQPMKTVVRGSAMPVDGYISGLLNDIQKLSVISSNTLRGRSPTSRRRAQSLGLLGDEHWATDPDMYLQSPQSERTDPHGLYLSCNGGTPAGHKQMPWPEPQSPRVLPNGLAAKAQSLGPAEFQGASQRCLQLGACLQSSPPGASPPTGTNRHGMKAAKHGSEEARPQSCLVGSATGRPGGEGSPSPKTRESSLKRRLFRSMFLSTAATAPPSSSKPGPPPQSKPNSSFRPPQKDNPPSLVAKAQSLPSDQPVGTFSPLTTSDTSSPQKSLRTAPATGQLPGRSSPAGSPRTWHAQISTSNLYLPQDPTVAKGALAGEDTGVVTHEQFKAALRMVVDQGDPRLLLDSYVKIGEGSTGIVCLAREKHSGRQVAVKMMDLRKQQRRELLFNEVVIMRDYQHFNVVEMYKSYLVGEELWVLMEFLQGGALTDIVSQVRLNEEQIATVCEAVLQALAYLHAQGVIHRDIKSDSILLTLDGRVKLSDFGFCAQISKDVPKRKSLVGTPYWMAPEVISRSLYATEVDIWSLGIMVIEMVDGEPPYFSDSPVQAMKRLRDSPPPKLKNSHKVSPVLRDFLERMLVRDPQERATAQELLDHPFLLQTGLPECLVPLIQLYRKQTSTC
Description: as §1, §2

[1] = system: 403 wild-type (WT) human kinases; experiment: DiscoverX scanMAX kinome-wide selectivity; assay type: binding; conditions: for # scanMAX kinases with PoC < 10: 1 μM; for S10(1 μM): share of 403 WT human kinases with PoC < 10 at 1 μM
Excerpt: This panel includes 403 wild-type (WT) human kinases but not TTBK1/2. […] Substantial overlap between the MRC and DiscoverX scanMAX kinase panels allows the comparison of results for the same kinases in two different assay formats (enzymatic versus binding, respectively) at the same concentration. Selectivity results are included in two columns within Table 1. […] The rightmost column converts this selectivity score into the number of kinases with a PoC < 10 in the scanMAX panel.
The Eurofins DiscoverX Corporation scanMAX assay platform was employed to assess the selectivity of specific analogs at a single concentration (1 µM). As described previously, this assay platform profiles a compound against 403 wild-type human kinases and delivers percent of control (PoC) values. These percent of control values are included in Table 1 and corresponding kinome tree diagrams as well as tables for each analog included in Fig. S1.

[2] = intact HEK293 cells, 2 μM tracer 29, read-out: TTBK2 intact cell NB IC50
[3] = permeabilized HEK293 cells (digitonin), 2 μM tracer 29, read-out: TTBK2 permeabilized cell NB IC50
[4] = ATP at Km, dose–response 9-pt curve

Structure (SMILES) | IC50 (NLuc-TTBK2; [2]) | IC50 (NLuc-TTBK2; [3]) | TTBK2 PoC (TTBK2; ATP at Km) | PAK5 PoC at 1 μM (PAK5) | MAP4K5 PoC at 1 μM (MAP4K5) | MARK3 PoC at 1 μM (MARK3) | TAOK1 PoC at 1 μM (TAOK1) | PAK6 PoC at 1 μM (PAK6) | IC50 (NLuc-TTBK2; tracer titration experiment, 2 μM tracer 29, n = 1, read-out: NL-TTBK2 IC50, tracer titration) | IC50 (TTBK2; [4]) | # scanMAX kinases with PoC < 10 [1] | S10(1 μM) [1] | IC50 (TTBK2)
COC(C)(C)C#Cc1ccc2[nH]c3c(c2c1)-c1nc(N)ncc1CCC3 [Compound 11] | > 30 µM | > 30 µM | 110 PoC and 110/NT PoC | 88 PoC | 9 PoC | 104 PoC | 73 PoC | 92 PoC | – | – | – | – | –
CC(C)(O)C#Cc1ccc2[nH]cc(-c3ccnc(N)n3)c2c1 [Compound 3] | 11.7 ± 3.7 µM | 2.52 ± 0.62 µM | 24 PoC | 31 PoC | 1 PoC | 46 PoC | 7 PoC | 40 PoC | 6.9 µM | 0.384 µM | 34 | 0.084 | –
CC(C)(O)C#Cc1ccc2[nH]c3c(c2c1)-c1nc(N)ncc1CC3 [Compound 1] | 16 µM | 3.6 µM | 43 PoC | 48 PoC | 3 PoC | 56 PoC | 5 PoC | 51 PoC | – | 1.21 µM | 20 | 0.05 | > 1 µM
CC(C)(O)C#Cc1ccc2[nH]c3c(c2c1)-c1nc(N)ncc1CCC3 [AMG28, reference compound] | – | – | 20 PoC | 3 PoC | 1 PoC | 12 PoC | 2 PoC | 6 PoC | – | – | 21 | 0.052 | –
CC(C)(O)C#Cc1ccc2[nH]c3c(c2c1)-c1nc(N)ncc1CCCC3 [Compound 2] | > 30 µM | 17 µM | 69 PoC and 69/NT PoC | 87 PoC | 9 PoC | 76 PoC | 65 PoC | 77 PoC | – | – | – | – | –
